Read-outs that look alike come from different tables or passages of the source.
What was measured:
[1] = tested on: P. falciparum (3D7 strain); assay: In vitro antiplasmodial activity, P. falciparum blood-stage parasites, SYBR Green I; format: cell-based, Plasmodium falciparum; details: 3D7 strain, 72 h, SYBR Green I, read-out: IC50^Pf
Protocol: The P. falciparum strains were cultivated in human blood cells (hRBC) O^+, while P. knowlesi was cultivated in rhesus red blood cells (rRBC) as described. P. falciparum complete RPMI (consisting of RPMI-1640, supplemented with 0.2% NaHCO3, 25 mM HEPES (pH 7.4), 11 mM D-glucose, 10 mg/L hypoxanthine, 25 mg/L gentamicin, and 0.5% (m/v) AlbuMAX II). The parasitemias of these cultures were maintained below 10% with 2.5% hematocrit. P. knowlesi complete RPMI (consisting of RPMI-1640 supplemented with 25 mM HEPES, […] hypoxanthine, 0.26% NaHCO3, 10 mg/L gentamicin, and 1% Albumax II). This culture was maintained with RBCs up to 5% hematocrit. The culture medium was changed daily, and all cultures were maintained under a 90% N2/5% CO2/5% O2 gas mixture at 37 °C. All compounds were purchased from Sigma-Aldrich (Cotia, Brazil).
The antiplasmodial activity of brussonol and derivatives was evaluated against P. falciparum blood parasites 3D7(chloroquine-sensitive). The parasites were synchronized through sterile 5% (m/v) D-sorbitol treatment over 10 min at 37 °C for the enrichment of ring stages. Centrifugation 600× g over 5 min was used to pellet the cultures. The parasitemia was determined by microscope analysis of thin blood smears stained with Giemsa 10% (v/v) after fixation with methanol. The initial parasitemia was calculated for 1000 red blood cells (RBCs), and cultures were diluted to 0.5% parasitemia and 2% hematocrit by the addition of the appropriate volumes of blood and medium. A total of 180 µL aliquots of parasites were distributed into 96-well plates followed by the addition of 20 µL of previously prepared aliquots of ten-fold concentrated compounds, the range of concentrations tested was 10–1.53 µM. Negative and positive control wells, which correspond to non-parasitized erythrocytes and parasite cultures in the absence of compounds, were set in parallel. The DMSO concentration was maintained below 0.05% (v/v) for all compounds except for brussonol, which was 0.5%. The plates were incubated for 72 h at 37 °C in a humidified incubator with a gas mixture of 90% N2, 5% O2, and 5% CO2. Each test was performed in duplicates, and the results were compared with the control cultures. Once completed incubation, the culture medium was removed, and the cells were resuspended in 100 µL PBS (116 mM NaCl, 10 mM NaH2PO4, 3 mM KH2PO4) and lysed with 100 µL lysis buffer (20 mM Tris base, 5 mM EDTA, 0.0008% (v/v) Triton X-100, 0.008% (m/v) saponin, pH 8.0) containing 0.002% (v/v) SYBR Green I. Plates were incubated for 30 min at room temperature, and a SpectraMAX Gemini EM plate reader (Molecular Devices Corp., Sunnyvale, CA) was used to determine the fluorescence corresponding to parasitic density (excitation at 485 nm, emission at 535 nm). The half-maximal inhibitory concentration (IC50^Pf) was determined by non-linear regression analysis of the resulting concentration–response curve using the software GraphPad Prism version 8.0.1 for Windows, GraphPad Software, San Diego, California USA, www.graphpad.com, accessed on 3 March 2022”.

P. falciparum 3D7 strain = assay: Chemical rescue assay with isopentenyl pyrophosphate (IPP); format: cell-based, Plasmodium falciparum; details: Plasmodium falciparum, 3D7 strain, 72 h
From the text: To evaluate whether brussonol interfered with the biosynthesis of […] in malaria parasites, we conducted a chemical rescue assay. The assay identifies compounds that interfere with the metabolism of isoprenoids by “rescuing” their growth inhibition through the supplementation of isopentenyl pyrophosphate (IPP), a key precursor of isoprenoid biosynthesis. […] Thus, the chemical rescue assay compares the IC50 values of the tested compound in the presence and absence of IPP. We used fosmidomycin (FOS) as a positive control for growth inhibition rescuing upon supplementation of IPP (Figure 7b). In this assay, compounds that interfere in the metabolism of isoprenoids show a significant increment in the IC50 value in the presence of IPP (Figure 7b).
The chemical rescue assay was carried out as described by Yeh and DeRisi (2011). This assay consists in verifying the IC50 value of the tested compounds with and without the isopentenyl pyrophosphate (IPP), purchased from Isoprenoids, LC (Florida, USA). Briefly, 3D7 strain ring stages were cultured in 96-well plates, with 0.5% parasitemia and 2% hematocrit. Non-parasitized erythrocytes and parasitized erythrocytes without drugs were used as growth controls, and fosmidomycin (FOS) was used as a positive control for chemical rescue. Serial dilutions of brussonol and FOS were prepared in duplicates. In the same 96-well plate, brussonol and FOS had their antiplasmodial activity evaluated with and without supplementation of 200 µM IPP. Plates were incubated for 72 h and analyzed by the SYBR Green I assay.

[2] = tested on: cytosolic Ca^2+ in P. falciparum; assay: [Ca2+]cyt measurements in isolated parasites loaded with Fluo-4AM; format: cell-based, Plasmodium falciparum
Protocol: One of the compounds identified in the structural similarity search was the cyclopiazonic acid (CPA) (Figure 8a). […] Because of that, brussonol activity on the modulation of the SERCA pump was investigated. To assess the effect of brussonol on calcium mobilization in P. falciparum intraerythrocytic stages, isolated parasites loaded with Fluo-4-AM were exposed to 10 μM brussonol in MOPS Ca^2+ buffer. […] To verify if the brussonol-elicited [Ca^2+]cyt increment originated from the endoplasmic reticulum (ER), targeting the PfSERCA pump, CPA was added before the addition of brussonol. […] In the brussonol-pretreated parasites, the addition of CPA still increased the cytosolic Ca^2 + level (30 ± 5 nM) (Figure 8d).
Isolated parasites were incubated for 1 h at 37 °C with 5 μM of Fluo-4AM in 1 mL MOPS buffer (116 mM NaCl, 5.4 mM KCl, 0.8 mM MgSO4, 5.5 mM D-glucose, 50 mM MOPS, and 2 mM CaCl2, pH 7.2), with 1 mM probenecid to minimize compartmentalization and extrusion of probe. The parasites were washed three times with the same buffer and transferred to a quartz cuvette. Intracellular calcium was measured continuously using a Hitachi F-7000 spectrofluorimeter (Tokyo, Japan) by measurement of the fluorescence (λex = 488 nm and λem = 530 nm) at 37 °C, under agitation. When indicated, 10 µM of cyclopiazonic acid (CPA) or 10 µM of brussonol were added to the cuvette. Maximal fluorescence (Fmax) was determined after the lysis of with digitonin 0.15% (m/v), and minimal fluorescence (Fmin) was determined by adding 25 mM EGTA in 3 M Tris, pH 8.8, until no further decrease in fluorescence was observed. The cytosolic calcium concentration ([Ca^2+]cyt) was calculated from the fluorescence data (F) using a Kd value of 345 nM using the formula:Ca^2 +cyt = 345 × [(F − Fmin)/(Fmax − F)]
The results (n = 2) were analyzed through One-Way ANOVA with Tukey post-test. All compounds described here were purchased from Sigma-Aldrich (verificar local).

HepG2 cells = assay: Cytotoxic test on immortalized cells, MTT; format: cell-based, human; details: HepG2, 72 h
Protocol: The cytotoxic effects of brussonol and derivatives were evaluated against the human hepatocellular carcinoma cell line (HepG2). The cells were cultivated in an RPMI medium supplemented with 10% (v/v) fetal bovine serum and 25 µg/mL gentamicin. Conditions for the cultivation of these cells were 37 °C and 5% CO2, and every 2 days the supplemented medium was changed.
For experimental procedures, the cells were trypsinized and transferred to a 96-well plate at 30,000 cells per well (180 µL). The plate was incubated at 37 °C and 5% CO2 to allow cell adhesion. Next, 20 µL of serial dilutions of the compounds tested were added to the plate, with a range of concentrations tested from 400–6.25 µM. Cells without any compounds were used as a positive control for growing and the wells containing only medium were used as negative controls. The plate was incubated for 72 h at 37 °C and 5% CO2. After incubation, a microscope was used to determine the highest compound concentration to be used in the experiments (highest concentration without precipitation). A colorimetric assay was used to evaluate cytotoxicity. This assay is based on the metabolic cell activity in the presence of 3-(4,5-dimethylthiazol-2-yl)-2,5-diphenyltetrazolium bromide (MTT). Shortly after incubation, 20 µL of a solution of MTT at 5 mg/mL (solubilized in phosphate buffer) is added to each well. The plate is incubated for 3 to 4 h at 37 °C to allow MTT cleavage in living cells. Then, the supernatant is removed, and 100 µL of dimethylsulfoxide (DMSO) is added to solubilize the purple formazan crystals. The absorbance, which is proportional to the number of viable cells, was determined using a SpectraMAX Plus 384 plate reader (Molecular Devices Corp., Sunnyvale, CA) (λ = 570 nm). All compounds described here were purchased from Sigma-Aldrich (verificar local).
After the IC50 against the parasite and the human cell line is determined, it is possible to calculate the SI. It is calculated as the formula below:SI = IC50^HepG2/IC50^Pf.
For our reference, compounds with SI values higher than 10 are considered well tolerated by the cellular model used, and they are considered for further evaluation.

hemozoin formation = assay: Hemozoin formation inhibition assay; format: biochemical; details: hemin 25 µM, pH 4.8, 4 h, one experiment in triplicate
Protocol: 2. Hemozoin Formation Inhibition Assay
The hemozoin formation inhibition assay was performed as described previously.12 Briefly, serial 1:3 dilutions, in a 96‐well plate, wit h brussonol were made in a final volume of 20 μL in a concentration 10 times higher than the final concentration of the assay. Secondly, 90 μ L of freshly prepared hemin (at a final concentration of 25 μM) solution in 1M NaOAc/HOAc buffer pH 4.8 were added followed by addition of 90 μ L of 5.4 mg/L Tween 20 solution freshly prepared. The plates were let to stand for 4 hours at 37 °C followed by resuspension with multichannel pippete and read at 415 and 630 nm using a SpectraMAX Plus 384 plate reader (Molecular Devices Corp., Sunnyvale, CA).
Due to the absence of enough compound, this experiment wa s performed only once, but with internal triplicate. Chloroquine (CQ) and pyrimethamine (PYR) were used as positive and negative control of inhibition, respectively.
Inhibition (%) = 100 – 100 x [(Aco ntro l – Asample) / (Acontrol - Amin)] Acontrol is the difference of the absorbance at 415 and 630 nm of the negative control (Hemin +, Tween 20 ‐, Compound ‐); Amin is the difference of the absorbance at 415 and 630 nm of the positive control (Hemin +, Tween 20 +, Compound ‐ ); Asample is the difference of the absorbance at 415 and 630 nm of the sample. The hemozoin formation inhibition assay was performed to evaluate if brussonol act inhibiting hemozoin formation in P. falciparum. CQ, which is a well‐known inhibitor of hemozoin […]
Figure S1. Hemozoin formation inhibition assay. Different concentrations of CQ (black triangles), PYR (red squares) and brussonol (blue circles) were incubated with heme in triplicates. Th e absorbance was recorded at 415/630 nm to determine the hemozoin formation inhibition. […]

[3] = Plasmodium falciparum, 3D7, 72 h

Compound	IC50 [1, 3]	also measured
COc1ccc2c(c1OC)CC13CCCCC1CC2O3 (stereo not drawn) [Compound 2]	> 10 µM	–
O=C1C=CC(=O)C2=C1CC13CCCCC1CC2O3 (stereo not drawn) [Compound 6]	> 10 µM	–
O=CN(O)CCCP(=O)(O)O [fosmidomycin, reference compound]	–	IC50 (P. falciparum 3D7 strain; with 200 µM IPP, read-out: IC50 in the presence of IPP): > 20 µM; IC50 (P. falciparum 3D7 strain; without IPP, read-out: IC50 in the absence of IPP): 1.2 ± 0.2 µM
COc1ccc2c(c1OC)C[C@@]13CCCC(C)(C)[C@@H]1C[C@@H]2O3 (racemic) [Compound 9]	> 10 µM	–
COc1ccc(OC)c2c1CC13CCCCC1CC2O3 (stereo not drawn) [Compound 3]	> 10 µM	–
cyclopiazonic acid [reference compound]	–	[Ca^2+]cyt rise in brussonol-pretreated parasites ([2]; 10 µM CPA added after 10 µM brussonol): 30 ± 5 nM; [Ca^2+]cyt rise ([2]; 10 µM compound alone, MOPS Ca^2+ buffer, relative to basal level): 23 ± 2 nM
Oc1ccc2c(c1O)CC13CCCCC1CC2O3 (stereo not drawn) [Compound 4]	> 10 µM	–
CCN(CC)CCCC(C)Nc1ccnc2cc(Cl)ccc12 (stereo not drawn) [Chloroquine, reference compound]	–	IC50 (hemozoin formation): 80 µM

More lines, main results first:

IC50 [1, 3]	Compound	also measured
> 10 µM	CC(C)c1cc2c(c(O)c1O)C[C@@]13CCCC[C@@H]1C[C@@H]2O3 (racemic) [Compound 13]	–
~5 µM	COc1c2c(c(Br)c(C(C)C)c1OC)[C@@H]1C[C@H]3C(C)(C)CCC[C@@]3(C2)O1 (racemic) [Compound 10]	IC50 [1]: 5.6 ± 0.1 µM
> 10 µM	Oc1ccc(O)c2c1C[C@@]13CCCC[C@@H]1C[C@@H]2O3 (racemic) [Compound 5]	–
5.8 ± 0.2 µM	COc1c2c(c(-c3ccccc3)c(C(C)C)c1OC)[C@@H]1C[C@H]3C(C)(C)CCC[C@@]3(C2)O1 (racemic) [Compound 11]	IC50 (HepG2 cells; Homo sapiens): > 12 µM
5.2 ± 0.4 µM	COc1c(C(C)C)cc2c(c1OC)CC13CCCC(C)(C)C1CC2O3 (stereo not drawn) [Compound 7]	IC50 (HepG2 cells; Homo sapiens): > 192 µM
~5 µM	COc1c(C(C)C)cc2c(c1OC)C[C@@]13CCCC[C@@H]1C[C@@H]2O3 (racemic) [Compound 12]	IC50 [1]: 5.6 ± 0.8 µM
~5 µM	COc1c2c(c(OC)c(C(C)C)c1OC)[C@@H]1C[C@H]3C(C)(C)CCC[C@@]3(C2)O1 (racemic) [Compound 8]	IC50 (HepG2 cells): 170 ± 38 µM; IC50 (HepG2 cells; Homo sapiens): > 170 µM
5.89 ± 0.02 µM	COc1c2c(c(-c3ccccc3)c(C(C)C)c1OC)[C@@H]1C[C@H]3CCCC[C@@]3(C2)O1 (racemic) [Compound 15]	IC50 (HepG2 cells; Homo sapiens): > 50 µM
5.65 ± 0.05 µM	COc1c2c(c(Br)c(C(C)C)c1OC)C1CC3CCCCC3(C2)O1 (stereo not drawn) [Compound 14]	IC50 (HepG2 cells; Homo sapiens): > 25 µM

Source: article PMC9321043, “Synthesis, Structure–Activity Relationships, and Parasitological Profiling of Brussonol Derivatives as New Plasmodium falciparum Inhibitors” (Pharmaceuticals, 2022)
